The text below walks through data of BindingDB's records for doi:10.1021/acs.jmedchem.5b01538 (Glaxosmithkline, 2016).

The assay concerns the target T1, Lysine-specific demethylase 4C (Homo sapiens, UniProt Q9H3R0).
T1 sequence (Q9H3R0 whole entry): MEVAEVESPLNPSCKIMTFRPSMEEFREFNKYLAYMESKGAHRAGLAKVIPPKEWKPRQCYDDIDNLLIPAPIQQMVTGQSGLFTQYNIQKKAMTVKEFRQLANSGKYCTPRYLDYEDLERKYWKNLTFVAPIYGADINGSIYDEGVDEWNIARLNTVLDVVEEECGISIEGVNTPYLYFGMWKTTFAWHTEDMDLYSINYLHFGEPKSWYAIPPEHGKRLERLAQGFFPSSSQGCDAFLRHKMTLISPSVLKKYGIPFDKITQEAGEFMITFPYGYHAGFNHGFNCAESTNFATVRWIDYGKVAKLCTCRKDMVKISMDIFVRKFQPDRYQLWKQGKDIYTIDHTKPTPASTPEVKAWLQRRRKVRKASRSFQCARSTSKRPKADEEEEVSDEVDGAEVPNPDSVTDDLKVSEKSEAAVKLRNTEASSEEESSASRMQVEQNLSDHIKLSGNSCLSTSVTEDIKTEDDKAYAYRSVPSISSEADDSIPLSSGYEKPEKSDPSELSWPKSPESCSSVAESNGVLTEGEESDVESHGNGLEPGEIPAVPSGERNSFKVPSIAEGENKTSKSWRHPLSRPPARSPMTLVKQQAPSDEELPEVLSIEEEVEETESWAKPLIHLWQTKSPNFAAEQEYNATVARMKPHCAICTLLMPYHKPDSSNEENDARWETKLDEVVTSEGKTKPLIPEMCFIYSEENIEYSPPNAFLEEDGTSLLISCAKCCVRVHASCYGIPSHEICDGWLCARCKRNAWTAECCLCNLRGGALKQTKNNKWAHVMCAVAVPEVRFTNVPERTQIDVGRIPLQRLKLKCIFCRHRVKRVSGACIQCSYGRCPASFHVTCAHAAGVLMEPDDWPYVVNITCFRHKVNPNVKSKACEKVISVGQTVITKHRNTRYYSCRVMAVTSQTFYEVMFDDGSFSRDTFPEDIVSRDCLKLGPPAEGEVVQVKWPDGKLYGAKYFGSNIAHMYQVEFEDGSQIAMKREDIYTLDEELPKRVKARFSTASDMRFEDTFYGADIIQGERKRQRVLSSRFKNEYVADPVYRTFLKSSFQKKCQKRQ
In words: Inhibition of N-terminal his-tagged full-length human KDM4C transfected in U2OS cells assessed as inhibition of H3K9Me3 demethylation for 24 hrs.

Usually IC50 stands for the midpoint of a concentration-inhibition curve. For the molecule `CC(C)c1ccc(Oc2nc3cnccc3c(=O)[nH]2)cn1`, the half-maximal inhibitory concentration (IC50) was 3.98 µM. In the case of `O=c1[nH]c(Oc2ccc(Cl)c(O)c2)nc2cnccc12` it was 3.98 µM.
